# ChEMBL document CHEMBL3608254, “Discovery of novel triazolobenzazepinones as γ-secretase modulators with central Aβ42 lowering in rodents and rhesus monkeys” (Bioorg Med Chem Lett, 2015)
# The source made the active and inactive calls. The calls are words filed in the database; no cut-off is given here.
# How the values were obtained:
# Gamma-secretase [1] = test: Inhibition of gamma-secretase in human SH-SY5Y cells expressing beta-APP C-terminal fragment SPA4CT assessed as decrease of amyloid beta-40 level by electrochemiluminescent method; assay type: cell-based
# Rattus norvegicus [2] = test: Antialzheimer's disease activity in po dosed Sprague-Dawley rat assessed as reduction of amyloid beta-40/42 level in brain measured after 6 hrs; assay type: functional
# [3] = biological target: T1, Voltage-gated inwardly rectifying potassium channel KCNH2 (Homo sapiens, UniProt Q12809)
# T1 sequence (Q12809 whole entry, the tested form may be a part): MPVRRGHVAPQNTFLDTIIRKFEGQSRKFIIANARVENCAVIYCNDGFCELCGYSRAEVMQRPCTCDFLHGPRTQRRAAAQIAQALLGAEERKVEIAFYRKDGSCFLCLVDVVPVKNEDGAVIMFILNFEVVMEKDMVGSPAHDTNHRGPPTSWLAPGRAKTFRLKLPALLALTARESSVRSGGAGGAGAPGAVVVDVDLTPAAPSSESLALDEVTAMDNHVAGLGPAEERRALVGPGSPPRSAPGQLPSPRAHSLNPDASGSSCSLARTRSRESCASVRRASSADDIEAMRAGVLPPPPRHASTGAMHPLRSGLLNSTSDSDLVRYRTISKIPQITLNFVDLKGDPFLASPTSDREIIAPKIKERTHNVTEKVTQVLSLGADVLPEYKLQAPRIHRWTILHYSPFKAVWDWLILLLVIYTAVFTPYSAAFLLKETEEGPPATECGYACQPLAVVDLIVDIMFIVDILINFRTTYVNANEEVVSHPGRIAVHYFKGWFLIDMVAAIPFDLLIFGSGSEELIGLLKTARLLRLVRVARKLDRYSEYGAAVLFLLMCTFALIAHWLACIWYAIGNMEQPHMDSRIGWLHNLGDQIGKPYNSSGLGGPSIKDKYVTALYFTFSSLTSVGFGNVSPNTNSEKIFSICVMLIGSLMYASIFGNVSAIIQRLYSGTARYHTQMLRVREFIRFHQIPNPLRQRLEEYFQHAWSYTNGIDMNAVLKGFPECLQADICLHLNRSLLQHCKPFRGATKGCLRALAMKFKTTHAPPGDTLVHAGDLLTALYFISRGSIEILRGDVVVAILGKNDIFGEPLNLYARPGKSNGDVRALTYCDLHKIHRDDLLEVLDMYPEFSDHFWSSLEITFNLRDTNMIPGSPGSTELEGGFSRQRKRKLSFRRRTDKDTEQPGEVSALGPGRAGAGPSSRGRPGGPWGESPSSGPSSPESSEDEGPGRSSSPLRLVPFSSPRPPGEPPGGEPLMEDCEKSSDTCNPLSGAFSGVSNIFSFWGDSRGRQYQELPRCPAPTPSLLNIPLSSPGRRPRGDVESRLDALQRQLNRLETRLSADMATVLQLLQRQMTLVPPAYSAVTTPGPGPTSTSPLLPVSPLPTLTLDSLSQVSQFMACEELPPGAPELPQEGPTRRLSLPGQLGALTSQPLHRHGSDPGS
# Description: Binding affinity to human ERG expressed in HEK cells by MK-499 radioligand displacement assay
# Gamma-secretase [4] = test: Inhibition of gamma-secretase in human SH-SY5Y cells expressing beta-APP C-terminal fragment SPA4CT assessed as decrease of amyloid beta-42 level by electrochemiluminescent method; assay type: cell-based
# [5] = Inhibition of gamma-secretase-mediated cleavage of NotchdeltaE in human HeLa cells expressing NotchdeltaE assessed as intracellular release of Notch intracellular domain (NICD)/N-terminal luciferase by luminescent method; assay type: cell-based
# Mus musculus = test: Antialzheimer's disease activity in po dosed APP-YAC transgenic mouse assessed as reduction of amyloid beta-40/42 level in brain measured after 6 hrs; assay type: functional
# [6] = Volume of distribution at steady state in Sprague-Dawley rat at 1 mg/kg, iv and 2 mg/kg, po; assay type: ADME, organism-based; settings: in vivo, read-out: Vdss
# [7] = Plasma clearance in dog at 0.25 mg/kg, iv and 0.5 mg/kg, po; assay type: ADME, organism-based, Canis lupus familiaris
# [8] = biological target: Sodium-dependent serotonin transporter (Homo sapiens, UniProt P31645); test: Inhibition of SERT (unknown origin)
# [9] = Apparent permeability of the compound in pig LLC-PK1 cells; assay type: ADME, cell-based, Sus scrofa
# Canis familiaris = test: Dose normalized AUC (0 to 24 hrs) in dog at 0.5 mg/kg, po; assay type: ADME, organism-based, Canis lupus familiaris; settings: in vivo
# [10] = Half life in Sprague-Dawley rat at 1 mg/kg, iv; assay type: ADME, organism-based; settings: in vivo
# [11] = AUC in cerebrospinal fluid of rhesus monkey cisterna-magna-ported model at 6 mg/kg bolus dose followed by 4 hrs infusion of 44 mg/kg, iv; assay type: ADME, organism-based, Macaca mulatta
# [12] = Lipophilicity, log D of the compound; assay type: physicochemical; settings: octanol/water
# Rhesus monkey [13] = test: Antialzheimer's disease activity in rhesus monkey cisterna-magna-ported model assessed as reduction of amyloid beta-40 level in CSF at 6 mg/kg bolus dose followed by 4 hrs infusion of 44 mg/kg, iv measured up to 20 hrs; assay type: functional, organism-based; settings: Macaca mulatta
# Rattus norvegicus [14] = test: Dose normalized AUC (0 to 24 hrs) in Sprague-Dawley rat at 2 mg/kg, po; assay type: ADME, organism-based; settings: in vivo
# [15] = Fraction unbound in dog; assay type: ADME, organism-based, Canis lupus familiaris; settings: in vivo
# CYP3A4 [16] = biological target: T2, CYP3A4 (Homo sapiens, UniProt P08684); test: Time dependent inhibition of CYP3A4 (unknown origin) at 50 uM; assay type: ADME
# T2 sequence (P08684 whole entry): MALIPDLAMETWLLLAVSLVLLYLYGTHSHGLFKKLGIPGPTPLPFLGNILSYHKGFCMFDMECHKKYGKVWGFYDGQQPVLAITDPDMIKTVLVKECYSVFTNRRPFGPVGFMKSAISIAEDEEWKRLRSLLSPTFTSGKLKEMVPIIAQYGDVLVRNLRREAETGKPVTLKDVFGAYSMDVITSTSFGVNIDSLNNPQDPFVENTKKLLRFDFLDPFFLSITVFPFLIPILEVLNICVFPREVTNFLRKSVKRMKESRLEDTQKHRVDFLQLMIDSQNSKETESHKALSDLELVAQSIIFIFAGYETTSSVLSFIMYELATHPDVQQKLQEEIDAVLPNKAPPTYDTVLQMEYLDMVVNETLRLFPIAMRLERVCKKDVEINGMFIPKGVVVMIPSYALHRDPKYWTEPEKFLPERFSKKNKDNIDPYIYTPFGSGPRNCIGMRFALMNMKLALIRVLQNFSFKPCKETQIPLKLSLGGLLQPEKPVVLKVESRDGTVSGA
# [17] = Solubility of the compound at pH 2; assay type: physicochemical; settings: buffer
# [18] = Half life in rhesus monkey hepatocytes; assay type: ADME, cell-based, Macaca mulatta, Hepatocyte
# [19] = Oral bioavailability in dog at 0.5 mg/kg; assay type: ADME, organism-based, Canis lupus familiaris; settings: in vivo
# [20] = Half life in rhesus monkey at 0.25 mg/kg, iv; assay type: ADME, organism-based, Macaca mulatta; settings: in vivo
# Rattus norvegicus [21] = test: Antialzheimer's disease activity in Sprague-Dawley rat assessed as reduction of amyloid beta-42 level in brain at 100 mg/kg, po after 6 hrs relative to control; assay type: functional
# [22] = Fraction unbound in rat; assay type: ADME, organism-based; settings: in vivo
# Rattus norvegicus [23] = test: Oral bioavailability in Sprague-Dawley rat at 2 mg/kg; assay type: ADME, organism-based; settings: in vivo
# [24] = Half life in dog at 0.25 mg/kg, iv; assay type: ADME, organism-based, Canis lupus familiaris; settings: in vivo
# Rattus norvegicus [25] = test: Dose normalized AUC in Wistar-Han rat at 100 mg/kg, po; assay type: ADME, organism-based; settings: in vivo
# Rhesus monkey [26] = test: Antialzheimer's disease activity in rhesus monkey cisterna-magna-ported model assessed as reduction of amyloid beta-42 level in CSF at 6 mg/kg bolus dose followed by 4 hrs infusion of 44 mg/kg, iv measured up to 20 hrs; assay type: functional, organism-based; settings: Macaca mulatta
# [27] = Half life in human hepatocytes; assay type: ADME, cell-based, Hepatocyte
# [28] = Drug level in Sprague-Dawley rat brain at 100 mg/kg, po after 6 hrs; assay type: ADME, organism-based; settings: read-out: Drug uptake
# [29] = biological target: T3, Nuclear receptor subfamily 1 group I member 2 (Homo sapiens, UniProt O75469); test: Activation of PXR (unknown origin); assay type: ADME
# T3 sequence (O75469 whole entry): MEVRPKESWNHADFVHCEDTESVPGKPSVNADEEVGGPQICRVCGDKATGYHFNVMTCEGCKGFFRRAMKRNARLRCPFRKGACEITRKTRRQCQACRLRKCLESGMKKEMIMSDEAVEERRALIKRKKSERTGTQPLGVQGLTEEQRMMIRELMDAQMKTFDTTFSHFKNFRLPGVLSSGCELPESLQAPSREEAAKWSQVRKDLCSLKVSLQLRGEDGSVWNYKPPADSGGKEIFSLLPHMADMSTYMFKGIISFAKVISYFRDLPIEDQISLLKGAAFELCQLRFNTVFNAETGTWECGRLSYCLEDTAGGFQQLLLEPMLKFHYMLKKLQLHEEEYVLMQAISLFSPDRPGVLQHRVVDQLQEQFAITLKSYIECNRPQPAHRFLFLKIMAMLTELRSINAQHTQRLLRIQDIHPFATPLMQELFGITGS
# [30] = Half life in dog hepatocytes; assay type: ADME, cell-based, Canis lupus familiaris, Hepatocyte
# [31] = Volume of distribution at steady state in dog at 0.25 mg/kg, iv and 0.5 mg/kg, po; assay type: ADME, organism-based, Canis lupus familiaris; settings: in vivo, read-out: Vdss
# CYP3A4 [32] = biological target: T2, CYP3A4; test: Inhibition of CYP3A4 (unknown origin) at 10 uM; assay type: ADME
# [33] = Volume of distribution at steady state in rhesus monkey at 0.25 mg/kg, iv and 0.5 mg/kg, po; assay type: ADME, organism-based, Macaca mulatta; settings: in vivo, read-out: Vdss
# Plasma = test: AUC in plasma of rhesus monkey cisterna-magna-ported model at 6 mg/kg bolus dose followed by 4 hrs infusion of 44 mg/kg, iv; assay type: ADME, organism-based, Macaca mulatta; settings: in vivo
# [34] = Half life in rat hepatocytes; assay type: ADME, cell-based, Hepatocyte
# [35] = Solubility of the compound at pH 7; assay type: physicochemical; settings: buffer
# [36] = Fraction unbound in human; assay type: ADME, organism-based; settings: in vivo
# [37] = biological target: T1, Voltage-gated inwardly rectifying potassium channel KCNH2; test: Inhibition of human ERG expressed in HEK cells assessed as reduction in IKr current by patchXpress assay; assay type: cell-based, HEK293
# [38] = Plasma clearance in Sprague-Dawley rat at 1 mg/kg, iv and 2 mg/kg, po; assay type: ADME, organism-based
# CYP2D6 = CYP2D6 (Homo sapiens, UniProt P10635); test: Inhibition of CYP2D6 (unknown origin) at 10 uM; assay type: ADME
# Chain of CYP2D6 (P10635 whole entry): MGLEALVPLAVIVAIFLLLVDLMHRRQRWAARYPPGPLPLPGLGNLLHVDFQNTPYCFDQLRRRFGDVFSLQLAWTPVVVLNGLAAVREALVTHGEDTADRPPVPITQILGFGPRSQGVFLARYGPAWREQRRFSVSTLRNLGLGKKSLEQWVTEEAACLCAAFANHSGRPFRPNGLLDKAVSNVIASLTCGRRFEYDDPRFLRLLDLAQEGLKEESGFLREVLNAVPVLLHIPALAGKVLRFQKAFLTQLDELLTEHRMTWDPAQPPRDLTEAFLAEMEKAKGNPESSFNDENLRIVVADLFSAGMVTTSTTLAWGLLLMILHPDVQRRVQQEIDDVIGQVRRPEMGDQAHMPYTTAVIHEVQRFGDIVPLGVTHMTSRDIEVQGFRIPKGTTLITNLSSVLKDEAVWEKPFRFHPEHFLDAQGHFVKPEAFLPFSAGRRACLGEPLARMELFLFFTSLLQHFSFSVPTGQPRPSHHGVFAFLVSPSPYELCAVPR
# CYP2C9 = CYP2C9 (Homo sapiens, UniProt P11712); test: Inhibition of CYP2C9 (unknown origin) at 10 uM; assay type: ADME
# Chain of CYP2C9 (P11712 whole entry): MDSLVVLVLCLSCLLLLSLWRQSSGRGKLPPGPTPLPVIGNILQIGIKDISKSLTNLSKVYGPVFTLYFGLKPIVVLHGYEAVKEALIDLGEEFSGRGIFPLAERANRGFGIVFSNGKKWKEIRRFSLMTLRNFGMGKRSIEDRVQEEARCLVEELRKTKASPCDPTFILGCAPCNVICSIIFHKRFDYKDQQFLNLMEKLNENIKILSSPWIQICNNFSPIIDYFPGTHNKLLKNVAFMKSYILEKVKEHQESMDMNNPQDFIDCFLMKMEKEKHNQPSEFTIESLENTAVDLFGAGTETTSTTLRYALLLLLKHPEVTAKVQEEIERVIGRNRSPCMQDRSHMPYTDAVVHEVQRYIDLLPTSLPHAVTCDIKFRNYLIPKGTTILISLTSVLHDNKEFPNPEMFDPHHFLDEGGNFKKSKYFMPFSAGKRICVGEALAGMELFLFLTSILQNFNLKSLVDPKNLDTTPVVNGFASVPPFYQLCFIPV
# [39] = Fraction unbound in rhesus monkey; assay type: ADME, organism-based, Macaca mulatta; settings: in vivo
# [40] = Oral bioavailability in rhesus monkey at 0.5 mg/kg; assay type: ADME, organism-based, Macaca mulatta; settings: in vivo
# [41] = Half life in rat liver microsomes; assay type: ADME
structure (smiles),measurement,setting,value
COc1cc(-c2cn(C3(C)CCc4ccccc4N(CC(F)(F)F)C3=O)nn2)ccc1-n1cnc(C)c1 (stereo not given),IC50,Gamma-secretase [1],6380 nM
same,Activity,Rattus norvegicus [2],Active
same,IC50,[3],6000 nM
same,IC50,Gamma-secretase [4],580 nM
same,IC50,[5],> 50000 nM
same,Activity,Mus musculus,Active
COc1cc(-c2cn(C3CCc4c(ccc(Br)c4F)N(CC(F)(F)F)C3=O)nn2)ccc1-n1cnc(C)c1 (stereo not given),IC50,Gamma-secretase [1],50 nM
same,Activity,Rattus norvegicus [2],Active
same,IC50,[3],530 nM
same,IC50,Gamma-secretase [4],10 nM
same,IC50,[5],> 50000 nM
same,Activity,Mus musculus,Active
COc1cc(-c2cn(C3CCc4c(F)cccc4N(CC(F)(F)F)C3=O)nn2)ccc1-n1cnc(C)c1 (stereo not given) [GSM1],Vd,[6],4.8 L/kg
same,clearance,[7],82 mL/min/kg
same,IC50,[8],32 nM
same,Papp,[9],25 ×10⁻⁶ cm/s
same,AUCt/dose,Canis familiaris,0.1 µM·kg·h/mg
same,half-life,[10],0.8 h
same,AUC at 4 h,[11],2.2 µM·h
same,logD,[12],3.3
same,Activity,Rhesus monkey [13],inactive
same,AUCt/dose,Rattus norvegicus [14],1.6 µM·kg·h/mg
same,ED50,Rattus norvegicus [2],15 mg/kg
same,IC50,[3],2610 nM
same,fraction unbound,[15],0.058
same,inhibition at 50 µM,CYP3A4 [16],18%
same,solubility,[17],180 µM
same,half-life,[18],0.817 h
same,bioavailability,[19],< 5%
same,half-life,[20],1.2 h
same,inhibition in vivo at 100 mg/kg,Rattus norvegicus [21],92%
same,fraction unbound,[22],0.037
same,F,Rattus norvegicus [23],190%
same,half-life,[24],6.2 h
same,AUC/dose,Rattus norvegicus [25],8.8 µM·kg·h/mg
same,Activity,Rhesus monkey [26],Active
same,half-life,[27],1.02 h
same,concentration at 6 h,[28],35 µM
same,EC50,[29],> 30000 nM
same,half-life,[30],1.12 h
same,Vd,[31],14 L/kg
same,inhibition at 10 µM,CYP3A4 [32],42%
same,Vd,[33],2 L/kg
same,AUC,Plasma,183 µM·h
same,half-life,[34],0.6 h
same,solubility,[35],5.6 µM
same,fraction unbound,[36],0.036
same,IC50,[5],39800 nM
same,IC50,[37],12900 nM
same,clearance,[38],38 mL/min/kg
same,inhibition at 10 µM,CYP2D6,28%
same,inhibition at 10 µM,CYP2C9,68%
same,ED50,Mus musculus,15 mg/kg
same,fraction unbound,[39],0.057
same,bioavailability,[40],< 5%
COc1cc(-c2cn([C@H]3C[C@H](C)c4ccccc4N(CC(F)(F)F)C3=O)nn2)ccc1-n1cnc(C)c1,IC50,Gamma-secretase [1],170 nM
same,Activity,Rattus norvegicus [2],Active
same,IC50,[3],6680 nM
same,IC50,Gamma-secretase [4],40 nM
same,IC50,[5],36600 nM
same,half-life,[41],1.2 h
same,Activity,Mus musculus,Active
COc1cc(-c2cn(C3CC[C@@H]4CCCC[C@H]4N(Cc4ccccc4)C3=O)nn2)ccc1-n1cnc(C)c1 (stereo not given in full),inhibition,[8],inactive
same,IC50,Gamma-secretase [1],470 nM
same,Activity,Rattus norvegicus [2],Active
same,IC50,Gamma-secretase [4],70 nM
same,IC50,[5],> 50000 nM
same,Activity,Mus musculus,Active
COc1cc(-c2cn(C3CSc4ccccc4N(CC(F)(F)F)C3=O)nn2)ccc1-n1cnc(C)c1 (stereo not given),IC50,Gamma-secretase [1],240 nM
same,Activity,Rattus norvegicus [2],Active
same,IC50,[3],4750 nM
same,IC50,Gamma-secretase [4],60 nM
same,IC50,[5],28400 nM
same,Activity,Mus musculus,Active
COc1cc(-c2cn(C3CCc4ccccc4NC3=O)nn2)ccc1-n1cnc(C)c1 (stereo not given),IC50,Gamma-secretase [1],4720 nM
same,IC50,Gamma-secretase [4],390 nM
same,IC50,[5],33000 nM
COc1cc(-c2cn(C3CCc4ccccc4N(CCF)C3=O)nn2)ccc1-n1cnc(C)c1 (stereo not given),IC50,Gamma-secretase [1],3140 nM
same,IC50,Gamma-secretase [4],440 nM
same,IC50,[5],> 50000 nM
COc1cc(-c2cn(C3CCc4ccccc4N(Cc4ccccc4)C3=O)nn2)ccc1-n1cnc(C)c1 (racemic),IC50,Gamma-secretase [1],2010 nM
same,IC50,Gamma-secretase [4],240 nM
same,IC50,[5],> 50000 nM
COc1cc(-c2cn(C3CCc4ccccc4N(CC(F)F)C3=O)nn2)ccc1-n1cnc(C)c1 (stereo not given),IC50,Gamma-secretase [1],700 nM
same,IC50,Gamma-secretase [4],150 nM
same,IC50,[5],> 50000 nM
COc1cc(-c2cn(C3CCc4ccccc4N(CC(F)(F)F)C3=O)nn2)ccc1-n1cnc(C)c1 (stereo not given),IC50,Gamma-secretase [1],320 nM
same,IC50,Gamma-secretase [4],70 nM
same,IC50,[5],> 50000 nM
same,half-life,[41],0.583 h
